Data published in PubChem BioAssay (NCI).
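Tested at 5 concentrations; 48 h exposure; 96-well plates; endpoints linearly interpolated, else capped at highest concentration. The concentration for 50% growth inhibition is given as GI50. TGI denotes the concentration required for complete inhibition of growth.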

Tests used:
Assay in all cases: NCI-60 cell line screen, 48 h
[1] = test system: MDA-MB-435
[2] = test system: RXF 393 renal
[3] = test system: EKVX NSCLC
[4] = test system: HCC-2998 colon
[5] = test system: HT29 colon
[6] = test system: IGROV1 ovarian
[7] = test system: ACHN renal
[8] = test system: SK-MEL-2 melanoma
[9] = test system: NCI-H460 lung
[10] = test system: UACC-257 melanoma
[11] = test system: PC-3 prostate
[12] = test system: SR leukemia
[13] = test system: HCT-116 colon
[14] = test system: SNB-19 CNS
[15] = test system: KM12 colon
[16] = test system: HCT-15 colon
[17] = test system: MDA-MB-231 breast
[18] = test system: LOX IMVI melanoma
[19] = test system: OVCAR-3 ovarian
[20] = test system: DU-145 prostate
[21] = test system: 786-0 renal
[22] = test system: HL-60(TB) leukemia
[23] = test system: NCI-H522 lung
[24] = test system: K-562 leukemia
[25] = test system: SK-OV-3 ovarian
[26] = test system: SF-539 CNS
[27] = test system: RPMI-8226 leukemia
[28] = test system: NCI-H226 lung
[29] = test system: SK-MEL-5 melanoma

CCCCCC(=O)OCC(=O)O[C@@H]1C[C@]2(C(C)C)O[C@@]1(C)[C@@H]1CC[C@@H](C)[C@H]1[C@@H]2OC(=O)/C=C/c1ccccc1
GI50 [1]: > 58.2 µM | TGI [1]: > 86.4 µM | GI50 [2]: 0.127 µM | TGI [2]: > 6.51 µM | GI50 [3]: > 54.5 µM | TGI [3]: > 100 µM | GI50 [4]: > 62.3 µM | TGI [4]: > 100 µM | GI50 [5]: > 37.4 µM | TGI [5]: > 79.1 µM | GI50 [6]: > 33.4 µM | TGI [6]: > 55.8 µM | GI50 [7]: 0.0387 µM | TGI [7]: 10.1 µM | GI50 [8]: > 58.2 µM | TGI [8]: > 81 µM | GI50 [9]: > 60.6 µM | TGI [9]: > 94.8 µM | GI50 [10]: > 55.7 µM | TGI [10]: > 89.2 µM | GI50 [11]: 8.58 µM | TGI [11]: > 100 µM | GI50 [12]: 19.7 µM | TGI [12]: > 100 µM | GI50 [13]: 32.2 µM | TGI [13]: > 100 µM | GI50 [14]: > 75.3 µM | TGI [14]: > 100 µM | GI50 [15]: > 78.5 µM | TGI [15]: > 100 µM | GI50 [16]: > 34.3 µM | TGI [16]: > 70 µM | GI50 [17]: > 57.5 µM | TGI [17]: > 80.5 µM | GI50 [18]: > 49.9 µM | TGI [18]: > 72.6 µM | GI50 [19]: > 46.6 µM | TGI [19]: > 67.3 µM | GI50 [20]: > 48.4 µM | TGI [20]: > 72.4 µM | GI50 [21]: 0.789 µM | TGI [21]: 13.6 µM | GI50 [22]: > 53.2 µM | TGI [22]: > 80.3 µM | GI50 [23]: 38.2 µM | TGI [23]: > 76.5 µM | GI50 [24]: > 41.3 µM | TGI [24]: > 100 µM | GI50 [25]: > 85.2 µM | TGI [25]: > 100 µM | GI50 [26]: > 51.3 µM | TGI [26]: > 76.2 µM | GI50 [27]: 43.3 µM | TGI [27]: > 100 µM | GI50 [28]: 50.6 µM | TGI [28]: > 100 µM | GI50 [29]: 42.5 µM | TGI [29]: > 77.4 µM
